The source of these data is publication PMC10552532, “Evaluation of anti-cancer effects of carnosine and melittin-loaded niosomes in MCF-7 and MDA-MB-231 breast cancer cells” (Frontiers in Pharmacology, 2023).

Series [1] is described as follows: In vitro drug release from dialysis bag. In kind it is physicochemical. The conditions noted are these: first 6 h, pH 5.4, 37°C. Here is the method:
A dialysis bag (MWCO = 12 kDa) was used to compare 2 mL of free drugs, Car-NIO and Mel-NIO for drug release (in vitro). This bag was placed in a phosphate buffered saline (PBS) solution (50 mL, 1X, pH = 5.4) with slow stirring (50 rpm) at 37°C. At certain intervals, a portion of the PBS solution was removed and replaced with a new aliquot.

In series [2] the test system is MDA-MB-231 cells. Briefly: Lipid peroxidation (MDA) detection. In kind it is cell-based. The settings on record: MDA-MB-231, 48 h at IC50 concentration, vs untreated cancer cells. Here is the method: (§1) For this assay, the cells (2 × 10^6 cells/mL) were seeded onto 96-well culture plates to determine lipid peroxidation levels. Following a 48-h incubation with Car-NIO (48.83, 51.4 μM), Mel-NIO (21.23, 43.65 μM), and olaparib (23.31, 32.55 μM), cells were collected and washed twice with phosphate-buffered saline. The cells were harvested with a sonicator probe (VCX-130 W, Newtown, United States) on ice, and then disrupted by ultra-sonication for 5 s. Following the manufacturer’s guidelines for best results, the malondialdehyde (MDA) was detected in the cell extract using the MDA test kit (catalog number: ab287797, Abcam, United Kingdom). The microplate reader was used to determine the MDA concentration at a wavelength of 532 nm (Tecan, Mannedorf, Switzerland) ([Gérard-Monnier et al., 1998]).

Series [3] concerns MCF-7 cells. Briefly: Lipid peroxidation (MDA) detection. Type of series: cell-based. The conditions noted are these: MCF-7, 48 h at IC50 concentration, vs untreated cancer cells. Here is the method: as §1
Series [4] deals with MDA-MB-231 cells. The series is described as follows: Cell cycle distribution by flow cytometry (propidium iodide). The settings on record: MDA-MB-231, 48 h at IC50 concentration. Type of series: cell-based. As to the method: (§2) Overnight, the cells were cultured in 100-mm plates at a density of 2 × 10^6 cells/mL per well using fresh culture media. Treatment with Car-NIO (48.83, 51.4 μM), Mel-NIO (21.23, 43.65 μM), and olaparib (23.31, 32.55 μM) for 48 h began the next day. After harvesting, the cells were fixed in 70% ethanol at […] for 12 h. After that, the cells were exposed to RNase (10 mg/mL) and propidium iodide (50 μg/mL) for 30 min. The cell cycle distribution was analyzed using flow cytometry, and the data were analyzed using FlowJo (TreeStar, Ashland, OR, United States) ([Mei et al., 2019]).
In general terms: In flow cytometry, cells or beads pass a laser one at a time.

Series [5] relates to MCF-7 cells. The series is described as above. Type of series: cell-based. The settings on record: MCF-7, 48 h at IC50 concentration. As to the method:
as §2

Series [6] concerns MDA-MB-231 cells. The series is described as follows: MTT cytotoxicity assay. Type of series: cell-based. The settings on record: Homo sapiens, MDA-MB-231, 48 h, read-out: IC50 (viability). As to the method: (§3) The 3-(4,5-dimethylthiazol-2-yl)-2,5-diphenyl-2H-tetrazolium bromide (MTT) assay is a colorimetric method that uses the transformation of yellow MTT into purple formazan. The following procedures were carried out in a clean environment using MTT Assay Kit (Cell Proliferation) (catalog number: ab211091, Abcam, United Kingdom), with the use of a Laminar flow cabinet meeting biosafety standard II (Baker, SG403INT, Sanford, ME, United States), l0^4 cells/well were subjected to varying doses of Car-NIO (5, 10, 25, 50, and 100 μM) ([Tehrani et al., 2018]) and Mel-NIO (5, 10, 25, 50, and 100 μM) ([Yaacoub et al., 2021]) and olaparib (5, 10, 25, 50, and 100 μM) ([Ashmawy et al., 2017]). After 48 h, we added 2.5 μg/mL of MTT to each well and incubated the plates at 37°C for another 4 h. After the formation of formazan crystals, 10% sodium dodecyl sulfate (200 μL/well) was used to dissolve the crystals. We measured the absorbance at 595 nm, and a positive control that causes 100% mortality under the same conditions was utilized. Using the following formula, the change in viability was given as a percentage was calculated: Cytotoxicity %=Extract reading/Negative control reading x100
(§4) Viability % = 100- Cytotoxicity%, The impact of each treatment is measured by its IC50 (the concentration at which 50% of the viability is inhibited).
In general terms: Tetrazolium assays rely on reduction of a dye to a coloured formazan, in cell work by metabolically active cells.

The test system of series [7] is MCF-7 cells. The series is described as follows: MTT cytotoxicity assay. Type of series: cell-based. The conditions noted are these: Homo sapiens, MCF7, MCF-7, 48 h, read-out: IC50 (viability). Here is the method: as §3, §4
Series [8] deals with MDA-MB-231 cells. The series is described as follows: Quantitative RT-PCR of marker genes. Type of series: cell-based. The conditions noted are these: MDA-MB-231, vs untreated cancer cells. An excerpt:
(§5) The cells’ total RNA was extracted with the help of the RNA Mini Kit from Ambion by Life Technologies by Thermo Scientific (catalog number: 12183018A). To ensure the integrity of the RNA samples, we used a NanoDrop® ND-1000 Spectrophotometer from NanoDrop Technologies in Wilmington, Delaware, United States A High Capacity cDNA Reverse Transcription Kit (catalog number: 4374966) from Thermo Scientific was then used to amplify the cDNA. The Maxima SYBR Green qPCR Master Mix (2X) kit from Thermo Scientific, (catalog number: K0251), was used for real-time PCR amplification ([Shehata et al., 2018]). The housekeeping GADPH (for mRNA) or U6 (for miRNA) were used as a standard. The 2^−∆∆ct formula was used to calculate the levels of target gene expression ([Livak and Schmittgen, 2001]). Table 1 contains the sequences of the desired gene primers.

For series [9], the system named is MCF-7 cells. Briefly: Quantitative RT-PCR of marker genes. In kind it is cell-based. The settings on record: MCF-7, vs untreated cancer cells.
From the text: as §5

Series [10] concerns human epidermal growth factor receptor 2-negative, metastatic breast cancer and a hereditary BRCA mutation. The arrangement: method as in Tutt et al., 2021. The conditions noted are these: olaparib monotherapy rather than the standard treatment; ref Tutt et al., 2021; cited from earlier work.

Consider `NCCC(=O)N[C@@H](Cc1cnc[nH]1)C(=O)O` [carnosine, β-alanyl-L-histidine], for which the drug release in series [1] was found to be 43%.

With `O=C(c1cc(Cc2n[nH]c(=O)c3ccccc23)ccc1F)N1CCN(C(=O)C2CC2)CC1` [olaparib], the MDA level entry in [2] is recorded as “significant downregulation”. Also, the MDA level result in [3] was “significant downregulation”. In addition, in series [4], the “cells in G0/1 phase” value is listed as 83.0% and the “cells in S phase” value came to 3.2%. For the same compound, in series [5], the “cells in G0/1 phase” value came to 63.2% and the “cells in S phase” value was found to be 8.6%. In series [6], the IC50 – broadly, the concentration at which inhibition is half-maximal – was 32.5 µM. The IC50 in series [7] was determined as 23.3 µM. In addition, the “expression level of miRNA-183” value in [8] (U6 as standard) is “significant downregulation”. Further, in series [8] (relative to GADPH), the “expression level of Bcl2” value is “significant downregulation”, the “expression level of FOXO3” value was “significantly upregulated”, the “expression level of PARP 1” value was “significant downregulation” and the “expression level of PDCD4” value is listed as “significantly upregulated”. Besides, in [8] (relative to GADPH), the “mRNA expression of Bax” value was “significant upregulation”, the “mRNA expression of P53” value is reported as “significant upregulation”, the “mRNA expression of caspase-3” value is “significant upregulation” and the “mRNA expression of caspase-9” value is recorded as “significant upregulation”. The “expression level of miRNA-183” value in [9] (U6 as standard) is on record as “significant downregulation”. In [9] (relative to GADPH), the “expression level of Bcl2” value is recorded as “significant downregulation”, the “expression level of FOXO3” value is “significantly upregulated”, the “expression level of PARP 1” value is “significant downregulation” and the “expression level of PDCD4” value is on record as “significantly upregulated”. Besides, in series [9] (relative to GADPH), the “mRNA expression of Bax” value was “significant upregulation”, the “mRNA expression of P53” value is reported as “significant upregulation”, the “mRNA expression of caspase-3” value is listed as “significant upregulation” and the “mRNA expression of caspase-9” value is recorded as “significant upregulation”. Also, the “extension of median progression-free survival” value in series [10] is 2.8 months.

As to melittin, in [1], the drug release was 72.3%.
